Measurements: patent US20080025917A1, “Methods for modulating formation and progression of cellulite” (priority 2006, published 2008)

How the values were obtained:
TIF1β = biological target: T1, TIF1β (Mus musculus, UniProt Q62318); test: HF-affinity resin binding / free-compound competition for TIF1β
T1 construct: endogenous in cells; host or cells: SV-MES cells (lysate)
Description: The molecular mechanisms underlying the regulation of ECM by HF currently are not known. […] These proteins, TIF1β and Ruvbl2, are both transcriptional regulatory proteins. TIF1β is known to interact with transcription factors that regulate Type I collagen expression, providing the first molecular connection between HF and the regulation of an ECM gene. A brief description and data detailing the isolation and identification of HF binding proteins are provided below. […] This band was identified by tandem mass spectrometry as TIF1β. These HF binding proteins were isolated and identified by tandem mass spectrometry. Using this approach, the transcriptional co-repressor TIF1β (FIG. 4) was initially identified as an HF binding protein. A cDNA encoding TIF1β was also identified and used to confirm that TIF1β binds specifically to HF (FIG. 5). Cloned, tagged TIF1β was transfected into SV-MES cells and precipitated with HF-resin.

[1] = cited from earlier work
[2] = in vitro; cited from earlier work
[3] = tested on: NMuMg murine epithelial cells; test: TGFβ-induced myofibroblast formation, Western blot for smooth muscle actin; format: cell-based; conditions: 5 ng/ml TGFβ1, 72 hours, increasing doses
Procedure: NMuMg murine epithelial cells were induced to undergo transition to myofibroblasts by stimulation with 5 ng/ml TGFβ1. After 72 hours, myofibroblast differentiation was assessed by Western blot for Smooth muscle actin (SMA), a myofibroblast contractile protein. […] Thus, HF inhibited myofibroblasts formation in response to TGFβ.

[4] = tested on: Primary human dermal fibroblasts; format: cell-based; conditions: 100 nM, 5 ng/ml TGFβ1
Procedure: Primary human dermal fibroblasts were seeded in a matrix of Type I collagen with 5 ng/ml TGFβ1 in the presence or absence of 100 nM HF. FIG. 7 depicts the effect of the presence and absence of HF on the behavior of TGFβ-treated dermal fibroblasts.

RuvBl2 = biological target: T2, RuvBl2 (Mus musculus, UniProt Q9WTM5); test: HF affinity purification / tandem mass spectrometry, RuvBl2; format: binding
T2 construct: endogenous in cells; host or cells: SV-MES cell lysate (inferred from the same approach described)
T2 sequence (Q9WTM5 2-463 limits assumed): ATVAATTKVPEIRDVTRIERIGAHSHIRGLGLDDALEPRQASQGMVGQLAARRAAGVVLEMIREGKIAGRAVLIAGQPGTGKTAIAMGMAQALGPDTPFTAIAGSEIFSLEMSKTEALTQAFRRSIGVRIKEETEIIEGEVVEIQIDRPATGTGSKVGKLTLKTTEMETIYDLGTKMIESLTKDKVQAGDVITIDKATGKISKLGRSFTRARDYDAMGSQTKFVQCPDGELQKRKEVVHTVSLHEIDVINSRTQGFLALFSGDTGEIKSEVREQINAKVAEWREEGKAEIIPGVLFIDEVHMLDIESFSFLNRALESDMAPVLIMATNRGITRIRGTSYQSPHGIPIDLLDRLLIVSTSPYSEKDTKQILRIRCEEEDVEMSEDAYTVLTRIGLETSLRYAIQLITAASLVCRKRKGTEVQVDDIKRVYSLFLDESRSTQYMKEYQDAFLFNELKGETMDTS
Description: TIF1β is a member of a family of transcriptional co-repressors (Chang, et al., Mol Cell Biol, vol. 18: 5880-87 (1998); Hsu, et al. Embo J., vol. 20: 2273-85 (2001); Le Douarin, et al. J Steroid Biochem Mol Biol 65, 43-50 (1998)). TIF1β interacts with a variety of transcription factors, including nuclear receptors, to mediate regulation of chromatin modification (Chang, et al., Mol Cell Biol, vol. 18: 5880-87 (1998); Hsu, et al. Embo J., vol. 20: 2273-85 (2001); Nomura, et al. J Biol Chem 279, 16715-26 (2004)). TIF1β interacts with a number of transcription factors known to regulate the synthesis of Type I collagen, providing a direct link between HF, TIF1β and the transcription of extracellular matrix genes. […] Ruvbl2, also known as Reptin, ECP51, Tip48, and Tip49b, is, like TIF1β, known to function in transcriptional regulation and chromatin re-modeling (Kanemaki, et al. J Biol Chem 274, 22437-44 (1999)). The identification of halofuginone's intracellular effectors, and the binding sites for halofuginone in those effectors, provides additional approaches to targeting the deposition of sub-dermal ECM. New classes of small molecules can be designed to target intracellular effectors such as TIF1β and RuvBl2, broadening the range of potential therapeutic agents for the treatment of cellulite.

[5] = tested on: human primary dermal fibroblasts; test: Fibroblast-driven collagen disc contraction; format: cell-based; conditions: 100 nM, 72 hours
Procedure: Human primary dermal fibroblasts were seeded in a matrix of Type I collagen in the presence or absence of 5 ng/ml TGFβ or 100 nM HF. Collagen discs were released from attachment to the culture dish and allowed to undergo fibroblast-driven contraction for 72 hours. The area of the discs at time zero was 200 units.

[6] = tested on: human primary dermal fibroblasts; test: Attachment and spreading of primary dermal fibroblasts on a Type I collagen matrix; format: cell-based
Procedure: Assay of HF effects on contractile behavior of dermal fibroblasts. Previous studies have established that HF can modulate fibrosis in vivo, and regulate ECM production by cells in vitro. The studies described herein provide a simple assay to test the effects of HF and its putative mediators on the behavior of cells likely to provide the basis for the structural features of cellulite—dermal fibroblasts and myofibroblasts. When human primary dermal fibroblasts are cultured in a matrix of Type I collagen, mimicking the interstitial matrix of the dermis and hypodermis, they attach to the substratum and spread, exerting contractile force on the surrounding interstitial matrix (FIG. 2A).

T1 sequence (Q62318 whole entry): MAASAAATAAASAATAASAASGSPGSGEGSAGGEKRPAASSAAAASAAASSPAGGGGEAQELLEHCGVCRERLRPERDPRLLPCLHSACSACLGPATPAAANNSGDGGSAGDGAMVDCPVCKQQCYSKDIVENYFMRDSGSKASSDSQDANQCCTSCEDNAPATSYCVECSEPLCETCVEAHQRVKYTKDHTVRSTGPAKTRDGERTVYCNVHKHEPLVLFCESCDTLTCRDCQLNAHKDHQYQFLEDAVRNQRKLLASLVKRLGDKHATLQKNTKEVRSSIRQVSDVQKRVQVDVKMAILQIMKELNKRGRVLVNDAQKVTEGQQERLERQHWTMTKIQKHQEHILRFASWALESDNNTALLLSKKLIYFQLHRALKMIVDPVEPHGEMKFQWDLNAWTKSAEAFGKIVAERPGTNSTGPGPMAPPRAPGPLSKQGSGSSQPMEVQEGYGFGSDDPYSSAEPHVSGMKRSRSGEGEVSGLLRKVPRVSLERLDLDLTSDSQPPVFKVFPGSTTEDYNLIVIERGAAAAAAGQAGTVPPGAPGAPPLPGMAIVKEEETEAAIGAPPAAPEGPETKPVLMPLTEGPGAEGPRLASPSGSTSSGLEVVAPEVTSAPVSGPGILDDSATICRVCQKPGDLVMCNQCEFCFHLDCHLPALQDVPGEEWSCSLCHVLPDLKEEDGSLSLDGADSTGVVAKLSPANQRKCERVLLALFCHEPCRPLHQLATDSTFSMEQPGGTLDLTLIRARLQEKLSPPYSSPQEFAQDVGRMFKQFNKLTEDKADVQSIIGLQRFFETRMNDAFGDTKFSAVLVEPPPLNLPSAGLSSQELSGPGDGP

Structure (SMILES)	competition by free compound for binding of TIF1β band to HF affinity resin (TIF1β; SV-MES cell lysates, excess free compound)	blocking of tagged TIF1β interaction with immobilized HF by pre-incubation (TIF1β; cloned, tagged TIF1β transfected into SV-MES cells, precipitated with HF-resin)	excess dermal ECM deposition ([1]; animal models of wound healing and fibrotic disease, intra-peritoneally, in food or applied locally)	toxicity in vivo ([1]; in vivo)	concentration at which it acts as an inhibitor of fibrosis [2] [nM]	smooth muscle actin (SMA) induction [3]	fibroblast extensions and attachments to the matrix [4]	binding of RuvBl2 to HF (RuvBl2)	contractile activity of myofibroblasts in a collagen matrix (disc area) [5]	ability of fibroblasts to attach and spread on collagen matrix ([6]; 200 nM, 24 hrs)	ability of fibroblasts to attach and spread on collagen matrix ([6]; as little as 30 nM)
O=C(CC1NCCCC1O)Cn1cnc2cc(Br)c(Cl)cc2c1=O (stereo not drawn) [HF, 7-bromo-6-chloro-3-[3-(3-hydroxy-2-piperidinyl)-2-oxopropyl]-4(3H)-quinazolinone]	specifically competed	blocked TIF1β interaction with immobilized HF	reduces excess dermal ECM deposition	low-toxicity	20 to 200	eliminated SMA induction	no extensions or attachments to the matrix or to one another	second HF binding protein	inhibited the contractile activity	completely fail to attach and spread	Identical results
CC(C)(C)OC(=O)N1CCC[C@H](O)[C@H]1CC(=O)Cn1cnc2cc(Br)c(Cl)cc2c1=O [MAZ1310]	–	–	–	–	–	–	–	–	–	inactive	–
